Results as given in the RepoRT retention time repository.

Test: RP, Waters ACQUITY UPLC BEH C18, 50 × 2.1 mm, 1.7 µm, 40 °C, 0.6 mL/min, estimated dead time 0.18 min; A: water + 0.1% formic acid, pH 3; B: acetonitrile + 0.1% formic acid, pH 3; gradient (min/%B) 0/5 7/100 8/100
Conditions: stereoisomer not certain

Row | LC retention time [min] | Compound
1 | 4.1 | C=C(C(=O)C(O)C(C)C1C(OC(C)=O)CC2(C)C3CCC4C(C)C(=O)C=CC45CC35CCC12C)C(C)CO (stereo not drawn)
2 | 2.27 | CC(=O)OC1CC(O)C23COCC1(C)C2CC(O)C1(C)C3C(=O)C(O)C2(C)C(c3ccoc3)CC3OC321 (stereo not drawn)
3 | 2.84 | CC(=O)OC/C=C(\C)C(=O)OC1C(=O)C(CO)=CC(OC(C)=O)C1C(C)C (stereo not drawn)
4 | 5.69 | COc1c(O)c(C(=O)C2CC=C(CCC=C(C)C)CC2c2ccccc2)c(OC)c(OC)c1OC (stereo not drawn)
5 | 4.16 | C/C=C(/C)C(=O)OC1CCC2CC3(O)OC(=O)C(C)=C3CC2(C)C1C (stereo not drawn)
6 | 4.97 | CC(=O)OC(CCc1ccccc1)Cc1cc(=O)c2c(o1)OC1(C)CCC(C(C)C)C2C1 (stereo not drawn)
7 | 0.287 | COc1c(O)cc(-c2oc3cc(O)cc(O)c3c(=O)c2O[C@@H]2O[C@@H](C)[C@H](O)[C@@H](O)[C@H]2O)cc1O
8 | 1.85 | C=C1C(=O)C23C(O)CC4C(C)(C)CCCC4(CO)C2C(O)CC1C3O (stereo not drawn)
9 | 3.33 | COC(=O)C1=CC(O)C23OC1CC2(C)CC[C@H](C(C)C)O3 (stereo partly drawn)
10 | 3.41 | CC1CCC2(C)C(CCC3OC32C)C1(C)CC(=O)c1ccoc1 (stereo not drawn)
11 | 1.77 | Oc1ccc(C2c3c(O)cc(O)cc3C3C(c4ccc(O)cc4)c4c(O)cc(O)cc4C23)cc1 (stereo not drawn)
12 | 4.41 | C=C(C(=O)C(OC(C)=O)C(C)C1C(OC(C)=O)CC2(C)C3CCC4C(C)C(=O)C=CC45CC35CCC12C)C(C)CO (stereo not drawn)
13 | 4.87 | CCC(C)C(=O)C1=C(O)C2(CC=C(C)C)CC(CCC(C)(C)NC(C)=O)C(C)(C)C(C(CC(=O)O)c3ccccc3)=C2OC1=O (stereo not drawn)
14 | 0.266 | C[C@@H]1O[C@@H](Oc2c(-c3ccc(O)c(O)c3)oc3cc(O)cc(O)c3c2=O)[C@H](O)[C@H](O)[C@H]1O
15 | 3.1 | COc1ccc(-c2cc(=O)c3c(O)cc(O)cc3o2)cc1-c1c(O)cc(O)c2c(=O)cc(-c3ccc(O)cc3)oc12
16 | 1.54 | O=C1c2c(O)cc(O)c(C3C(=O)c4c(O)cc(O)cc4OC3c3ccc(O)cc3)c2OC(c2ccc(O)cc2)C1O (stereo not drawn)
17 | 4.37 | C[C@H](C/C=C/C(C)(C)O)[C@H]1CC[C@@]2(C)C3C(=O)C=C4C(CCC(O)C4(C)C)[C@]3(C)CC[C@]12C (stereo partly drawn)
18 | 6.13 | CC(C)=CCC1CC2(CC=C(C)C)C(O)=C(C(=O)C(C)C)C(=O)OC2=C(C(CC(=O)O)c2ccccc2)C1(C)C (stereo not drawn)
19 | 3.68 | COc1ccc(C(=O)[C@@H](c2coc3cc(O)ccc3c2=O)C(c2ccc(O)cc2)c2ccc(O)cc2)c(OC)c1
20 | 2.74 | C/C=C/C(=O)CC1C(=O)C=CC1(CCCCCCCC(=O)O)OC(C)=O (stereo not drawn)
21 | 6.97 | C=C(C)C12CC(C)C34OC(CCCCCCCCCCCCC)(OC1C3C1OC1(CO)C(O)C1(O)C(=O)C(C)=CC14)O2 (stereo not drawn)
22 | 0.226 | Cn1c(N)nc2c(ncn2C)c1=O [2-amino-1,9-dimethyl-6,9-dihydro-1H-purin-6-one]
23 | 3.08 | CCC(O)C(/C=C1\C(=O)C=CC1(O)CCCCCCCC(=O)OC)OC(C)=O (stereo not drawn)
24 | 5.69 | C=C1CC23CCC4C(C)(C(=O)O)CCCC4(C)C2CCC1C3 (stereo not drawn)
25 | 5.61 | CC1CCC2(C)C(CCC(O)C2(C)O)C1(C)CC(O)c1ccoc1 (stereo not drawn)
26 | 4.77 | COc1c(CC=C(C)C)c(O)c(CC=C(C)C)c(O)c1C(=O)c1ccc(O)cc1
27 | 3.42 | Cc1coc2c1C(=O)C(=O)c1c-2ccc2c(C)cccc12 [1,6-dimethyl-10H,11H-phenanthro[1,2-b]furan-10,11-dione]

Row | LC retention time [min] | Compound
28 | 3.08 | COc1ccc(-c2oc3cc(O)c(OC)c(O)c3c(=O)c2OC)cc1
29 | 2.62 | COc1cccc2nc3occc3c(OC)c12 [4,5-dimethoxyfuro[2,3-b]quinoline]
30 | 2.49 | COc1c2occc2cc2ccc(=O)oc12 [9-methoxy-7H-furo[3,2-g]chromen-7-one]
31 | 2.43 | Cn1c(-c2ccc3c(c2)OCO3)cc(=O)c2ccccc21
32 | 5.96 | CCCCCCCCCCCC(=O)OC12CC(C)C3(O)C(C4OC4(CO)C(O)C4(O)C(=O)C(C)=CC43)C1C2(C)C (stereo not drawn)
33 | 1.55 | COC1=C(C)C(=O)O/C1=C1\OC2CCCN3C(C4CC(C)C(=O)O4)CCC3C2C1C (stereo not drawn)
34 | 6.09 | CCCCCCCCCCCCO[C@@H]1O[C@@H](C)[C@H](O[C@@H]2O[C@@H](C)[C@H](OC(C)=O)[C@@H](O[C@@H]3O[C@@H](C)[C@H](OC(C)=O)[C@@H](O[C@@H]4O[C@@H](C)[C@H](OC(C)=O)[C@@H](OC(C)=O)[C@H]4O)[C@H]3OC(C)=O)[C@H]2O)[C@@H](O)[C@H]1O
35 | 0.702 | C=C1[C@@H](O)C[C@H]2C(C)(C)C[C@H](O)C[C@]2(C)[C@H]1CC1C(C)=CCC2C(=O)C(OC)=CC(=O)C21c1cc(=O)c2c(O)cc(O)cc2o1 (stereo partly drawn)
36 | 4.26 | C=C1C(=O)O[C@@H]2C[C@@]3(C)CCC[C@H](C)C3=C[C@H]12
37 | 1.83 | COc1ccc2c(c1OC)C(=O)OC2C1c2c(cc3c(c2OC)OCO3)CCN1C (stereo not drawn)
38 | 3.6 | CC1=C2CC3(C)C(C)CCCC3CC2(O)OC1=O (stereo not drawn)
39 | 2.48 | COc1c(O)ccc2c1C(OC)N(C)c1c-2ccc2cc3c(cc12)OCO3 (stereo not drawn)
40 | 6.29 | CC(C)=CCC1CC2(CC=C(C)C)C(O)=C(C(=O)CC(C)C)C(=O)OC2=C(C(CC(=O)O)c2ccccc2)C1(C)C (stereo not drawn)
41 | 1.79 | CC[C@H]1NC2C[C@@]3(C(=O)N(OC)c4ccccc43)C3CC1C2CO3 (stereo partly drawn)
42 | 0.978 | CC1CC2CCCC3N4C(=O)CCCC4CC(C1)N23 (stereo not drawn)
43 | 4.89 | CC12CCC(C(OC(=O)/C=C/c3ccc(O)cc3)C1)C2(C)C (stereo not drawn)
44 | 1.27 | CC1=CC(C2OC3CCCN4C(C5CC(C)C(=O)O5)CCC4C3C2C)OC1=O (stereo not drawn)
45 | 0.304 | COc1cc(C=O)c([N+](=O)[O-])cc1OC [4,5-dimethoxy-2-nitrobenzaldehyde]
46 | 0.258 | C[C@@H]1O[C@H](O[C@@H]2[C@@H](O)[C@H](OCCc3ccc(O)c(O)c3)O[C@H](CO)[C@H]2OC(=O)/C=C/c2ccc(O)c(O)c2)[C@H](O)[C@H](O)[C@H]1O
47 | 1.83 | COc1cc(CC(COC(C)=O)C(COC(=O)/C=C/c2ccc(O)c(O)c2)Cc2ccc(O)c(OC)c2)ccc1O (stereo not drawn)
48 | 5.54 | CC1(C)CCC2(C(=O)O)CC=C3C(C)(CCC4C3(C)CCC3C(C)(C)C(OC(=O)c5ccc(O)cc5)C(OC(=O)c5ccc(O)cc5)CC43C)C2C1 (stereo not drawn)
49 | 4.03 | CC(C)=CC1CC(C2CCC3(C)C4=CCC5C(C)(C)C(=O)CCC5(C)C4CC(C=O)=C23)C(O)O1 (stereo not drawn)
50 | 1.09 | COC1=CC(=O)C2(c3cc(=O)c4c(O)cc(O)cc4o3)C(CC=C(C)C2C[C@@]2(O)C(C)(O)CC[C@H]3C(C)(C)C[C@H](O)C[C@@]32C)C1=O (stereo partly drawn)
51 | 1.59 | COc1cc2c3cc1Oc1c(cccc1OC)CC1c4c(cc(O)c(OC)c4Oc4cccc(c4)CC3N(C)CC2)CCN1C (stereo not drawn)
52 | 0.28 | COc1cc(CC(CO)C(CO)Cc2ccc(O)c(OC)c2)ccc1O (stereo not drawn) [2,3-bis[(4-hydroxy-3-methoxyphenyl)methyl]butane-1,4-diol]
53 | 1.69 | COc1ccc2cc1-c1cc(ccc1O)C[C@@H]1NCCc3cc4c(cc31)Oc1c(c(OC)c(O)c3c1[C@H](C2)N(C)CC3)O4

Row | Compound | LC retention time [min]
54 | C[C@@H]1CC2(N=CCS2)[C@]2(O)OC3C[C@@]4(C=O)C(CCC5C4CC[C@]4(C)C(C6=CC(=O)OC6)CC[C@]54O)CC3OC2O1 (stereo partly drawn) | 0.662
55 | COc1ccc(OC)c([N+](=O)[O-])c1/C=C/[N+](=O)[O-] [1,4-dimethoxy-2-nitro-3-[(1E)-2-nitroethenyl]benzene] | 0.72
56 | COc1cc2c3c(c1OC)Oc1ccc(cc1)CC1c4c(cc(OC)c(OC)c4Oc4ccc(cc4)CC3N(C)CC2)CCN1C (stereo not drawn) | 1.79
57 | COc1cc2c(cc1O)CC1NCCc3cc(OC)c(OC)c-2c31 (stereo not drawn) | 1.58
58 | CCN1CC2(COC(=O)c3ccccc3N3C(=O)CC(C)C3=O)CCC(OC)C34C5CC6C(OC)CC(O)(C5C6OC)C(O)(C(OC)C23)C14 (stereo not drawn) | 2.22
59 | Cc1ccc2c(c1)C1(C(C)C)CCC2(C)OO1 (stereo not drawn) | 4.34
60 | CC(C)(O)/C=C/C(=O)[C@](C)(O)[C@H]1[C@H](O)C[C@@]2(C)[C@@H]3CC=C4[C@@H](C[C@H](O)C(=O)C4(C)C)[C@]3(C)C(=O)C[C@]12C | 2.77
61 | COC(=O)[C@@]12C[C@@H]3C[C@H]([C@H](C)O)C1N(CCc1c2[nH]c2ccccc12)C3 | 1.91
62 | C[C@@H]1CC2(N=CCS2)[C@]2(O)OC3C[C@@]4(C=O)C(CCC5C4CC[C@]4(C)C(C6=CC(=O)OC6)CC(O)[C@]54O)CC3OC2O1 (stereo partly drawn) | 0.41
63 | COc1ccc([C@@]23Oc4cc5c(c(OC)c4[C@]2(O)[C@H](O)[C@H](C(=O)N(C)C)[C@H]3c2ccccc2)OCO5)cc1 | 3.26
64 | CC[C@H]1NC2C[C@@]3(C(=O)N(OC)c4cc(OC)ccc43)C3CC1C2CO3 (stereo partly drawn) | 1.95
65 | CC(=O)OC(C)(C)/C=C/C(=O)[C@](C)(O)[C@H]1[C@H](O)C[C@@]2(C)C3CC=C4C(CC(=O)C(O)C4(C)C)[C@]3(C)C(=O)C[C@]12C (stereo partly drawn) | 2.88
66 | C=CC12CN(C)C3C4COC(C[C@@H]41)[C@]1(C(=O)Nc4ccccc41)C32 (stereo partly drawn) | 1.01
67 | C=C[C@H]1CN2CCC3c4ccccc4NC3[C@H]2C[C@@H]1/C(=C\OC)C(=O)OC (stereo partly drawn) | 2.64
68 | COc1cc2c(cc1O)CC1NCCc3cc(O)c(OC)c-2c31 (stereo not drawn) | 1.11
69 | CCN1CC2(COC(=O)c3ccccc3NC(=O)CCC(=O)O)CCC(OC)C34C5CC6C(OC)CC(O)(C5C6OC)C(O)(C(OC)C23)C14 (stereo not drawn) | 2.22
70 | COC(=O)C1=COC(C)C2CN3CCC4(C(=O)Nc5ccccc54)C3CC12 (stereo not drawn) | 1.69
71 | CC(C)(O)/C=C/C(=O)[C@](C)(O)[C@H]1[C@H](O)C[C@@]2(C)C3CC=C4C(C=C(O)C(=O)C4(C)C)[C@]3(C)C(=O)C[C@]12C (stereo partly drawn) | 3
72 | C=C(C)[C@@]12OC3(/C=C/C=C\CCCCC)O[C@@H]1C1[C@@H]4O[C@]4(CO)[C@@H](O)[C@]4(O)C(=O)C(C)=CC4[C@@]1(O3)[C@H](C)[C@H]2OC(=O)c1ccccc1 (stereo partly drawn) | 5.88
73 | COc1cc2c(cc1OC)-c1c3c(cc4c1C(C2)N(C)CC4)OCO3 (stereo not drawn) | 1.84
